{"source": "patent US8993624B2", "about": "“Method of preventing and treating inflammatory diseases and disorders with abscisic acid” (Virginia Tech Intellectual Properties, Inc., priority 2010, dated 2015)", "test_system": "PPAR γ", "format": "cell-based"}
{"smiles": "CC1=CC(=O)CC(C)(C)C1(O)/C=C/C(C)=C\\C(=O)O", "note": "(single isomer, unassigned; (-)) [(−) ABA]", "values": [{"measurement": "concentration inducing maximal PPAR γ activation", "setting": "1.25-10 μM tested, 20 hours", "value": 2.5, "unit": "µM"}, {"measurement": "PPAR γ activation (relative luciferase activity)", "setting": "RAW 264.7, 20 hours", "value": "activated PPAR γ to a similar degree"}]}
